Assay results as given in the NIST ThermoML archive (doi:10.1021/je800999s).

Test: molar heat capacity at constant pressure; xn = mol fraction of the nth substance listed
Conditions: 101 kPa, Liquid, Large sample (1 g) DSC

COCCOCCOCCOC [2,5,8,11-tetraoxadodecane] + O
molar heat capacity at constant pressure [J/K/mol]
Conditions | x1 = 0.0999 | x1 = 0.1997 | x1 = 0.2967 | x1 = 0.3977 | x1 = 0.4983 | x1 = 0.5918 | x1 = 0.6926 | x1 = 0.7941 | x1 = 0.8686 | x1 = 1
303.15 K | 109 | 141 | 171 | 198 | 224 | 250 | 275 | 300 | 328 | 359
308.15 K | 110 | 143 | 173 | 200 | 227 | 253 | 278 | 304 | 332 | 364
313.15 K | 111 | 144 | 174 | 202 | 228 | 254 | 279 | 306 | 334 | 366
318.15 K | 112 | 145 | 175 | 203 | 229 | 255 | 281 | 307 | 335 | 368
323.15 K | 112 | 146 | 176 | 204 | 231 | 256 | 282 | 309 | 337 | 370
328.15 K | 113 | 147 | 177 | 206 | 232 | 258 | 283 | 310 | 339 | 371
333.15 K | 114 | 148 | 179 | 207 | 233 | 259 | 285 | 312 | 341 | 373
338.15 K | 114 | 149 | 180 | 208 | 235 | 261 | 286 | 313 | 342 | 375
343.15 K | 115 | 150 | 181 | 210 | 237 | 263 | 289 | 316 | 345 | 379
348.15 K | 116 | 151 | 183 | 211 | 238 | 264 | 290 | 318 | 347 | 381
353.15 K | 116 | 152 | 184 | 212 | 239 | 265 | 291 | 318 | 348 | 382

CN1CCCC1=O [N-methylpyrrolidone] + O
molar heat capacity at constant pressure [J/K/mol]
Conditions | x1 = 0.0999 | x1 = 0.1998 | x1 = 0.2984 | x1 = 0.3979 | x1 = 0.4961 | x1 = 0.5981 | x1 = 0.6917 | x1 = 0.799 | x1 = 0.8946 | x1 = 1
303.15 K | 90 | 102 | 113 | 122 | 129 | 137 | 144 | 152 | 158 | 166
308.15 K | 90 | 103 | 114 | 123 | 131 | 138 | 146 | 153 | 160 | 167
313.15 K | 91 | 104 | 115 | 124 | 132 | 140 | 147 | 154 | 161 | 168
318.15 K | 91 | 105 | 116 | 125 | 133 | 141 | 148 | 155 | 162 | 169
323.15 K | 92 | 105 | 118 | 127 | 135 | 142 | 150 | 157 | 164 | 170
328.15 K | 92 | 106 | 119 | 128 | 136 | 144 | 151 | 158 | 165 | 172
333.15 K | 93 | 107 | 120 | 129 | 138 | 145 | 153 | 160 | 166 | 174
338.15 K | 93 | 108 | 121 | 131 | 139 | 147 | 154 | 161 | 168 | 175
343.15 K | 94 | 109 | 122 | 132 | 141 | 149 | 156 | 163 | 169 | 176
348.15 K | 95 | 110 | 123 | 133 | 142 | 150 | 157 | 164 | 170 | 177
353.15 K | 95 | 110 | 124 | 134 | 142 | 151 | 158 | 165 | 170 | 178
